Assay results from patent US20160278376A1 (priority 2013, published 2016).
In brackets after ≈: the same amount, converted by molar mass. Like-named read-outs stand apart in the source and are kept apart here.

Columns and labels:
[1] = test system: E. coli Stratagene strain “Solopack”; experiment: Paper disc inhibition assay on E. coli lawn; format: cell-based; conditions: 20 μl drops without dilution (100% strength) on 6 mm discs; 24 hrs
Excerpt: FIG. 1. Effect of Carvacrol, Cinnamaldehyde and Geraniol against E. coli cells. Twenty microliter drops of three chemicals (at 100% strength) were placed on paper assay discs on top of E. coli lawn. Control disc included a solution of 70% ethanol without any added essential oil. Dotted line circles indicate zone of inhibition. Photo taken at 24 hrs after plating.
The essential oils cinnamadehyde (Aldrich, W228605; ≧98% purity), carvacrol (Aldrich, W224502; ≧98% purity) and geraniol (Aldrich, 163333; 98% purity) were purchased Sigma-Aldrich (St. Louis, Mo.). A single colony of E. coli Stratagene strain “Solopack” was inoculated in 5 ml of Luria Broth (LB) liquid medium with shaking at 37° C. overnight. Two hundred μl of the E. coli overnight cultures were placed on an LB agar plate, and spread evenly with glass beads. The bacterial culture was allowed to absorb into the LB medium. Within 30 min after absorption, 20 μl drops of the three essential oils (cinnamaldehyde, carvacrol or geraniol) were separately placed without dilution on 6 mm discs (Whatman, Cat No. 2017-006; GE healthcare Life Science) and the treated disks were placed on top of the plates with E. coli. The plates were then incubated for 24 hrs. Photos were taken at 24 hrs after plating (see FIG. 1). Experiments were repeated, with the same results.

[2] = test system: L. crescens strain BT-1 (Lcr); format: cell-based, Liberibacter crescens; conditions: 5 days
Lcr = experiment: microbe, parasite or virus in culture; format: cell-based; conditions: Liberibacter crescens, read-out: Minimum Inhibitory Concentration (MIC)
[3] = test system: Swingle rootstocks and sweet orange; experiment: Phytotoxicity of foliar spray / leaf painting on citrus; format: in vivo
Excerpt: To test the phytoxicity of cinnamaldehyde or carvacrol in 70% ethanol, and 70% ethanol alone on citrus plants, we applied 1% (w/v) and 10% (w/v) cinnamaldehyde or carvacrol (each dissolved in 70% ethanol) on Swingle rootstocks (˜6 inches to 1 foot tall) by spraying to the point of run-off of the spray and also sweet orange (˜3 foot tall) by painting one or both sides of a portion of the leaf surface. We also applied 70% ethanol as control in these two methods.

Swingle rootstocks = experiment: Phytotoxicity of soil drench on citrus; format: in vivo
Excerpt: To further test the phytoxicity of cinnamaldehyde or carvacrol in 70% ethanol, and 70% ethanol alone on citrus plants, we applied 1% and 10% cinnamaldehyde or carvacrol (each dissolved in 70% ethanol) on Swingle rootstocks (˜6 inches to 1 foot tall) by adding sufficient liquid to soil of potted citrus to the point of run-off of the drench. We also applied 70% ethanol as control in these two methods.

Las [4] = format: in vivo; conditions: 1% (w/v) in 70% ethanol, foliar spray to run off; 1-2 weeks later, remained positive for at least several months; positive = Ct ≤ 35
Las [5] = format: in vivo
Las [6] = format: in vivo; conditions: 1.5% (w/v) in 100% DMSO
[7] = test system: Hamlin sweet orange trees grafted onto Swingle rootstock; conditions: in vivo
[8] = 20 μl at 2 mg/ml in 70% ethanol on 6 mm discs
[9] = 1% (w/v) in 70% ethanol, sprayed to run-off on Swingle rootstocks, painted on sweet orange leaves, carvacrol effect observable by 24 hours
[10] = 10% w/v in 70% ethanol, chlorosis and leaf curling, but not defoliation
[11] = 1% in 70% ethanol (carvacrol: 8 mg/ml (1%), observable by 60 hrs), potted Swingle rootstocks

Compound | inhibition of the growth of E. coli (zone of inhibition) [1] | inhibition of the growth of Lcr (zone of inhibition) ([2]; 20 μl of two-fold dilutions 2 mg/ml to 0.125 mg/ml in 70% ethanol on 6 mm discs) | inhibition of the growth of Lcr (zone of inhibition) [2, 8] | level down to which inhibitory to Lcr in the disc tests ([2]; two-fold serial dilutions in 70% ethanol on 6 mm discs) [mg/mL] | MIC (Lcr) [µg/mL] | phytotoxicity to citrus, foliar application [3, 9] | phytotoxicity to citrus, foliar application [3, 10] | phytotoxicity to citrus, soil drench (Swingle rootstocks; [11]) | phytotoxicity to citrus, soil drench (Swingle rootstocks; [10]) | qPCR test for Las after treatment (Las [4]) | PCR test for Las (Las [5]; 0.3% in 50% DMSO, foliar spray to run off) | PCR test for Las in new shoots (Las [5]; 1.5% in 50% DMSO, foliar spray to run off, first tests about 3 weeks after defoliation) | outcome of weekly qPCR tests for Las over nine months (Las [5]; 1.5% in 50% DMSO, foliar spray, no detectable Liberibacter infection and no citrus greening symptoms) | PCR test for Las in new shoots (Las [6]; 2 x 20 ml trunk injection, first tests about 3 weeks after defoliation) | weekly PCR tests for Las over 9 months (Las [6]; trunk injection, thus cured) | effect on foliage of treated trees [7]
CC(C)=CCC/C(C)=C/CO [geraniol, reference compound] | inhibitory | not inhibitory | – | – | – | – | – | – | – | – | – | – | – | – | – | –
O=C/C=C/c1ccccc1 [cinnamaldehyde] | more inhibitory than geraniol | – | strong inhibition | 1 | 5 (≈ 37.8 µM) | not at all phytotoxic | moderately phytotoxic | not at all phytotoxic | moderately phytotoxic | qPCR positive | remained infected | completely Las negative | cured | completely negative | remained completely PCR negative | completely defoliated
Cc1ccc(C(C)C)cc1O [carvacrol, reference compound] | more inhibitory than cinnamaldehyde | – | slight inhibition | – | – | highly phytotoxic | – | highly phytotoxic | – | – | – | – | – | – | – | –
